Experimental data reported in ChEMBL document CHEMBL5727930, “Indazole containing macrocycles and therapeutic uses thereof” (2020).
pEC50: −log10 of the molar value.

What follows are molecules tested against Dual specificity tyrosine-phosphorylation-regulated kinase 1A (Homo sapiens, UniProt Q13627) (assay: Kinase Assay: The DYRK1A kinase assay was run using the Ser/Thr 18 peptide Z-lyte assay kit according to manufacturer's instructions (Life Technologies—a Division of Thermo-Fisher). This is a non-radioactive assay using fluorescence resonance energy transfer (FRET) between coumarin and fluorescein to detect kinase activity which is represented as a ratio of coumarin emission/fluorescein emission.Briefly, recombinant DYRK1A kinase, ATP and Ser/Thr peptide 18 were prepared in 1× Kinase buffer to final concentrations of 0.19 μg/mL, 30 μM, and 4 μM respectively. The mixture was allowed to incubate with the representative compounds for one hour at room temperature. All reactions were performed in duplicate. Unphosphorylated (“0% Control”) and phosphorylated (“100% control”) forms of Ser/Thr 18 served as control reactions. Additionally, an 11-point dose-response curve of Staurosporine (1 uM top) was run to serve as a positive compound control.).

Question: How did the pEC50 turn out when `O=C1CCc2cccc(c2)-c2cncc3[nH]c(nc23)-c2n[nH]c3ccc(cc23)-c2cncc(c2)N1` was run?
Answer: 8.00

Question: `O=C1CCc2cccc(c2)-c2cncc(c2)NC(=O)c2n[nH]c3ccc(cc23)-c2cncc(c2)CN1` was tested. Which pEC50 did it give?
Answer: 8.05

Question: `c1cc2cc(c1)-c1cncc3[nH]c(nc13)-c1n[nH]c3ccc(cc13)-c1cncc(c1)CNC2` was tested. Which pEC50 did it give?
Answer: 8.52

Question: With `O=C1COc2cccc(c2)-c2cncc3[nH]c(nc23)-c2n[nH]c3ccc(cc23)-c2cncc(c2)N1` as the molecule, how does the pEC50 read?
Answer: 8.30

Question: How did the pEC50 turn out when `CN1CCCCN(C)c2nccc3[nH]c(nc23)-c2n[nH]c3ccc(cc23)-c2cncc(c2)C1` was run?
Answer: 8.70
